{
  "source": "paper PMC3692398",
  "about": "(Biochemical pharmacology, 2013)",
  "origin": "cited, not measured here",
  "key": {"[1]": {"molecular_target": "hSERT (Homo sapiens, UniProt P31645)", "sequence (P31645 whole entry)": "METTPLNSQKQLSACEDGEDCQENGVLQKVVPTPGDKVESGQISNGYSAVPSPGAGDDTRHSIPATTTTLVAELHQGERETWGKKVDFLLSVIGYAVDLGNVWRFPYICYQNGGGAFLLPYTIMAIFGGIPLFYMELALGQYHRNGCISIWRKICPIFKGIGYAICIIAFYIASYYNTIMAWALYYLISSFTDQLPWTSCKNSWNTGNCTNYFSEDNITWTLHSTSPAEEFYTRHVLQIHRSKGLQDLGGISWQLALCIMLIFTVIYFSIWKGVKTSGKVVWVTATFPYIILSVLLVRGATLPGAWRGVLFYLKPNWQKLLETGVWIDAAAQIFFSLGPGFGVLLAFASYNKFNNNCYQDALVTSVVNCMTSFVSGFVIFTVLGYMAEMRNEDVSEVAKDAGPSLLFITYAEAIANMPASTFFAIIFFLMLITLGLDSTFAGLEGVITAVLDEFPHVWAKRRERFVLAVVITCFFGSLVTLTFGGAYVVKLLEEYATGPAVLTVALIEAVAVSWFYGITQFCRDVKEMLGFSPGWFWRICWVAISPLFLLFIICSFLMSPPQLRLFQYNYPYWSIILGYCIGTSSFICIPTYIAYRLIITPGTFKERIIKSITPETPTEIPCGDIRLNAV", "conditions": "read-out: Kd of radioligand, HEK-hSERT; ref Eshleman et al., 1999; cited from earlier work"}, "[2]": {"molecular_target": "hDAT (Homo sapiens, UniProt Q01959)", "sequence (Q01959 whole entry)": "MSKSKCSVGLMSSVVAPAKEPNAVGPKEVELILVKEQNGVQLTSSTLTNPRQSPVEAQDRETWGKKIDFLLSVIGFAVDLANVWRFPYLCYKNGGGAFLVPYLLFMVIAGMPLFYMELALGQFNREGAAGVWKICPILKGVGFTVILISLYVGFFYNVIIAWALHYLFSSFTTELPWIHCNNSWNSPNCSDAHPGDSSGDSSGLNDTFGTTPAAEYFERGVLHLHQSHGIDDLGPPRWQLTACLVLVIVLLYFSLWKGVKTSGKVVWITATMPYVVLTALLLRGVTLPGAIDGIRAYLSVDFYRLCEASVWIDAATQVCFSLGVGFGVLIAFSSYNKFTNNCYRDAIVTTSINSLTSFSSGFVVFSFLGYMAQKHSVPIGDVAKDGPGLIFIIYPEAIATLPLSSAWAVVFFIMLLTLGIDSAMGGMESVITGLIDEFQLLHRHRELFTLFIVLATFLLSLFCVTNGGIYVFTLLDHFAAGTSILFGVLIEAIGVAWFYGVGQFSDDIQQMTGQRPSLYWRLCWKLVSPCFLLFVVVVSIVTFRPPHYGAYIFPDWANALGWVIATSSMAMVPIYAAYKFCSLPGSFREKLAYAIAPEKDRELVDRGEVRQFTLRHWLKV", "conditions": "read-out: Kd of radioligand, HEK-hDAT; ref Eshleman et al., 1999; cited from earlier work"}, "[3]": {"molecular_target": "hNET (Homo sapiens, UniProt P23975)", "sequence (P23975 whole entry)": "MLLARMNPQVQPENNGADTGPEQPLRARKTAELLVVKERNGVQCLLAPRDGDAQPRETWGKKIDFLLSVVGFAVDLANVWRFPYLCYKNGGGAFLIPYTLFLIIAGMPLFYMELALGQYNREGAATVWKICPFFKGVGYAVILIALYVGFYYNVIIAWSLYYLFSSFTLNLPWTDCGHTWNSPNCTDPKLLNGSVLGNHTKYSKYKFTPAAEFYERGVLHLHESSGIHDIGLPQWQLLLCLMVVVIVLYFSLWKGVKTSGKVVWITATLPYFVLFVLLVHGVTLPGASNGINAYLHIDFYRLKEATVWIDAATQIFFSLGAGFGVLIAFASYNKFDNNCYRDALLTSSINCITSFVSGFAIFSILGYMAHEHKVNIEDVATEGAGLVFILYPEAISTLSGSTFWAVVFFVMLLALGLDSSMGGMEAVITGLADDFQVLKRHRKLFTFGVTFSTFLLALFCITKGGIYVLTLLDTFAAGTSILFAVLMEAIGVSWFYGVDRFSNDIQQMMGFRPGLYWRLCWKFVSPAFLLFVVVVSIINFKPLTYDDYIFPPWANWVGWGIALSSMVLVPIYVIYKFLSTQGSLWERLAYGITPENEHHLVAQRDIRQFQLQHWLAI", "conditions": "read-out: Kd of radioligand, HEK-hNET; ref Eshleman et al., 1999; cited from earlier work"}},
  "data": [
    {"smiles": "COC(=O)[C@H]1[C@@H](c2ccc(I)cc2)C[C@@H]2CC[C@H]1N2C", "note": "[[^125I]RTI-55]", "values": [
      {"measurement": "Kd", "setting": "[1]", "result": "0.98 ± 0.16", "unit": "nM"},
      {"measurement": "Kd", "setting": "[2]", "result": "1.83 ± 0.21", "unit": "nM"},
      {"measurement": "Kd", "setting": "[3]", "result": "12.1 ± 1.9", "unit": "nM"}
    ]}
  ]
}
